The values below are quoted from earlier work in publication PMC4860011 (Biochemistry, 2015).

The target in this data set is bsNOS (Bacillus subtilis, UniProt O34453). Particulars: read-out: KD of imidazole; used to convert KS,app to KS.
Chain of bsNOS (O34453 whole entry): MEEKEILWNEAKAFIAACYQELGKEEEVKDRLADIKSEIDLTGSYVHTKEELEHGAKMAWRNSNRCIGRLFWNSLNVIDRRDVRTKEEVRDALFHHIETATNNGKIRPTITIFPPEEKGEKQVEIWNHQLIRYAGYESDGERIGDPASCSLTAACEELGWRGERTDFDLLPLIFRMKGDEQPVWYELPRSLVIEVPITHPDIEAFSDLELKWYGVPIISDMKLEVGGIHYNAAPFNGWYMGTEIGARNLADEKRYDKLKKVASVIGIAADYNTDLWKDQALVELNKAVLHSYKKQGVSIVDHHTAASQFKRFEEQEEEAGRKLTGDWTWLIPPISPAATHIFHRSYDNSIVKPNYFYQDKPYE

In the case of `c1c[nH]cn1` [imidazole], the Kd was 384 µM.
